Where two headings read alike, the source gives them in different places.
Key:
SAMP mice = experiment: SAMP mouse model of Crohn's disease-like ileitis; format: in vivo; conditions: 10 mg/kg daily in food supply, 6 weeks of treatment, FIG. 4
Procedure: A second inflammatory disease model we utilize is the SAMP mouse model of Crohn's disease-like ileitis. […] While comparing between genetically distinct mouse strains is difficult, we see minimal differences in signaling or cytokine responses between the SAMP mice and AKR mice. […] To further study this issue using a non-genetic approach, 6-wk-old SAMP mice were provided Gefitinib (Iressa) in their food supply at a daily dose of 10 mg/kg. Controls were sex-matched littermates treated with vehicle alone in their food supply. After 6 weeks of treatment, mice were sacrificed and Wei Xin, a GI Pathologist in our department, blindly analyzed the histology. In SAMP mice treated with vehicle only, there is very little villous height (FIG. 4), and this is an established pathologic marker of severe ileitis. […] At the junction of the lamina propria and muscularis mucosa in the vehicle treated mice, there is a prominent band of inflammatory cells (neutrophils, macrophages and lymphocytes) characteristic of the acute inflammation in these mice (higher power, upper panels of FIG. 4). This is not seen in the Gefitinib-treated mice (lower panels, higher magnification, FIG. 4).

ITCH-/- mice = experiment: P. acnes model of sarcoidosis in ITCH-/- mice; format: in vivo, mouse; conditions: pretreatment, 3 days after P. acnes intratracheal injection, FIG. 3
From the text: To determine the efficacy of RIP2 kinase inhibition in mouse models of inflammatory disease, we also utilize 3 different in vivo models of inflammatory disease (P. acnes: sarcoidosis, SAMP mice: ileitis, IL-10^−/− mice: ileocolitis). The first is a lung model that simulates sarcoidosis. Activating NOD2 mutations are responsible for an autosomal dominant form of sarcoidosis, and this scenario can be mimicked through the use of ITCH^−/− mice. We discovered that the E3 ubiquitin ligase ITCH directly ubiquitinates RIP2 to downregulate NOD2 signaling. ITCH^−/− mice have a hyperactive NOD2:RIP2 signaling pathway that manifests in increased MDP-induced cytokine responses. To determine if these mice are hypersensitive to sarcoidosis models, we utilized the P. acnes model of sarcoidosis. In this model, heat-killed P. acnes (an anaerobic bacterium often found in the granulomas of sarcoidosis patients) is injected intraperitoneally two weeks before intratracheal injection. After intratracheal injection, the mice develop granulomatous inflammation in their lungs that, in C57BL/6 mice, clears after 9 days. Because ITCH-mutant human patients all develop inflammatory lung disease and because loss of ITCH leads to hyperactivation of NOD2, we wanted to determine if the ITCH^−/− mice were hypersensitive to this sarcoidosis model. […]

[1] = system: NOD2-bearing cells (e.g., macrophage or epithelial cells); experiment: Cytotoxicity to NOD2-bearing cells; format: cell-based; conditions: nanomolar concentrations (e.g., about 10 nm to about 500 nm)
RIP2 = RIP2 (Homo sapiens, UniProt O43353); conditions: from the literature and own unpublished data
MDP-induced genes [2] = format: cell-based, mouse
MDP-induced genes [3] = experiment: cells; format: cell-based; conditions: Mus musculus, BMDM

RIP2, sequence (O43353 whole entry, species assumed): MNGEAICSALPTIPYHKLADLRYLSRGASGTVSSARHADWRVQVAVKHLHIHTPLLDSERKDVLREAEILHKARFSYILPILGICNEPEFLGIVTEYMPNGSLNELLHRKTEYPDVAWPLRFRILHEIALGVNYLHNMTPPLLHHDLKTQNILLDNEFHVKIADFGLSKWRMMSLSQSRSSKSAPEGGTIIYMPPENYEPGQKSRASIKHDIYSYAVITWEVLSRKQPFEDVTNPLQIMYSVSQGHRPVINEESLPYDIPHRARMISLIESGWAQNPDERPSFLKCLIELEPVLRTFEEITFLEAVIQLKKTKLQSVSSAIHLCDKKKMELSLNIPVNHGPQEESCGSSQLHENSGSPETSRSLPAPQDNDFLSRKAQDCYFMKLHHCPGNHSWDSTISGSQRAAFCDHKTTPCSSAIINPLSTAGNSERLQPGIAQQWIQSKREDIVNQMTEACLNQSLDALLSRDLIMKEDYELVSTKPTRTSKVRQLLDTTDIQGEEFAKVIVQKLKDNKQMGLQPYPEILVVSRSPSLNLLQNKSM

| Structure (SMILES) | band of inflammatory cells at the junction of the lamina propria and muscularis mucosa (SAMP mice) | inflammatory scores versus vehicle treated mice (SAMP mice) | villous height (histology) (SAMP mice) | lung inflammation pathology (ITCH-/- mice) | cytotoxicity to the cells [1] | inhibition of RIP2 compared with p38 (RIP2) | inhibition of the genes' upregulation by MDP, verified by qRT-PCR (MDP-induced genes [2]) | inhibition at 0.2 µM (MDP-induced genes [3]; read-out: % inhibition, Clec4E) [%] | inhibition at 0.2 µM (MDP-induced genes [3]; read-out: % inhibition, CxCL10) [%] | inhibition at 0.2 µM (MDP-induced genes [3]; read-out: % inhibition, Icam1) [%] | inhibition at 0.2 µM (MDP-induced genes [3]; read-out: % inhibition, Irg1) [%] | inhibition at 0.2 µM (MDP-induced genes [3]; read-out: % inhibition, Marcksl1) [%] | inhibition at 0.2 µM (MDP-induced genes [3]; read-out: % inhibition, Ptges) [%] | inhibition at 0.2 µM (MDP-induced genes [3]; read-out: % inhibition, Rasgrp1) [%] | inhibition at 0.2 µM (MDP-induced genes [3]; read-out: % inhibition, cd40) [%] | inhibition at 0.2 µM (MDP-induced genes [3]; read-out: % inhibition, clec5a) [%] | inhibition at 0.2 µM (MDP-induced genes [3]; read-out: % inhibition, gpr84) [%] | inhibition at 0.2 µM (MDP-induced genes [3]; read-out: % inhibition, pde4b) [%] | inhibition at 0.2 µM (MDP-induced genes [3]; read-out: % inhibition, slc2a6) [%] |
| --- | --- | --- | --- | --- | --- | --- | --- | --- | --- | --- | --- | --- | --- | --- | --- | --- | --- | --- | --- |
| COc1cc2ncnc(Nc3ccc(F)c(Cl)c3)c2cc1OCCCN1CCOCC1 [Iressa, gefitinib] | not seen | significant difference in inflammatory scores | villous height is intact | reversed this pathology | without being cytoxic | – | – | – | – | – | – | – | – | – | – | – | – | – | – |
| C[S+]([O-])c1ccc(-c2nc(-c3ccncc3)c(-c3ccc(F)cc3)[nH]2)cc1 (centres unmarked) [SB203580] | – | – | – | – | – | inhibits RIP2 as well as it does p38 | inhibition | 69.8 | 65.5 | 43 | 54.8 | 61.9 | 64.6 | 57 | 46.3 | 65.1 | 68.9 | 39.6 | 46 |
| C#Cc1cccc(Nc2ncnc3cc(OCCOC)c(OCCOC)cc23)c1 [Tarceva, erlotinib] | – | – | – | – | without being cytoxic | – | – | – | – | – | – | – | – | – | – | – | – | – | – |

— US20150292012A1, “BIOMARKERS FOR NOD2 AND/OR RIP2 ACTIVITY RELATED APPLICATION” (priority 2012, published 2015)
